Experimental findings from patent USRE48461E1, “Modulation of androgen receptor expression” (Ionis Pharmaceuticals, Inc., priority 2012, dated 2021) are described below.

The subject of series [1] is AR mRNA. Put plainly: Antisense inhibition of human AR in HuVEC cells, single concentration (electroporation, qRT-PCR RTS3559). It is filed as cell-based. As to conditions: 500 nM ASO, electroporation, ~24 h, Table 2. The method in brief: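 HuVEC cells electroporated with antisense oligonucleotides at a single concentration. AR mRNA quantified by qRT-PCR using human primer-probe set RTS3559 and normalised to total RNA content by RIBOGREEN.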
For orientation: Quantitative PCR measures a nucleic acid by following its amplification.

Another series concerns KLK2 mRNA. Nature of the series: KLK2 mRNA (AR target gene) in C4-2B MR cells. It is filed as cell-based, human.
In series [2] the test system is AR mRNA. Put plainly: Dose-dependent antisense inhibition of human AR in HuVEC cells (electroporation, qRT-PCR RTS3559, IC50). It is filed as cell-based. The conditions noted are these: HuVEC, ~16 h, Table 4. The procedure, abridged: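 HuVEC cells dosed with antisense oligonucleotides by electroporation and treated approximately 16 hours. AR mRNA quantified by real-time qPCR with primer probe set RTS3559 and normalised to total RNA by RIBOGREEN; IC50 from dose-response.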

The test system of the next series is C4-2B MR cells. Put plainly: Proliferation of MDV3100-resistant C4-2B cells (CellTiter 96). It is filed as cell-based, human. As to conditions: 6 days. The procedure: ISIS 549372, ISIS 549434, ISIS 549458, and ISIS 554221 were each added to the culture media at 0.04 μM, 0.20 μM, 1.00 μM, and 5.00 μM concentration of antisense oligonucleotide. ISIS 347526 was included as a negative control. After a treatment period of 6 days, the proliferative capacity of the cancer cells was measured with using CellTiter 96® AQueous One Solution Cell Proliferation kit (Promega), following the manufacturer's instructions. Results are presented in Table 41 as percent inhibition of proliferation, relative to non-treated cells.

Another series concerns total AR mRNA. Nature of the series: Total (full-length) AR mRNA in C4-2B MR cells, free uptake. As to conditions: free uptake, 24 hrs. It is filed as cell-based, human. The procedure:
Cells were plated at a density of 40,000 cells per well in 96-well plates and cultured in RPMI1640 medium with 10% fetal bovine serum. […] ISIS 549372, ISIS 549458, ISIS 549434, and ISIS 554221 were each added at 0.04 μM, 0.20 μM, 1.00 μM, and 5.00 μM concentrations of antisense oligonucleotide to culture media for free uptake by the cells. […] After a treatment period of 24 hrs, total AR mRNA levels were measured by quantitative real-time PCR using primer probe set RTS3559.

The next series deals with KLK3 mRNA. Put plainly: KLK3 mRNA (AR target gene) in C4-2B MR cells. It is filed as cell-based, human.

Oligonucleotides are written 5' to 3', each unit as a sugar letter and its base; * is a phosphorothioate linkage, no mark a phosphodiester; rarer units and linkages stand in square brackets, end groups in braces. Plain capitals give the bases only. e = 2'-O-(2-methoxyethyl) (MOE); k = constrained ethyl (cEt); [5mC] = 5-methylcytosine; d = 2'-deoxy (DNA)

As to “549434 (k[5mC]*kT*kA*dA*dA*d[5mC]*dT*dT*d[5mC]*d[5mC]*d[5mC]*dG*dT*kG*kG*k[5mC]) [compound 549434]”, the “% inhibition” value in the series with AR mRNA [1] is 96%. In addition, the “Percent inhibition of KLK2 mRNA in C4-2B MR cells” value in the series with KLK2 mRNA (0.04 μM) came out at 5%; with KLK2 mRNA (0.20 μM), 27%; in the series on KLK2 mRNA (1.00 μM), 49%; in the series on KLK2 mRNA (5.00 μM) it was 68%. Also, the “percent inhibition of AR” value with AR mRNA [2] (55.6 nM) is listed as 38%; in the series with AR mRNA [2] (166.7 nM) it was 60%; in the series with AR mRNA [2] (500.0 nM) it was 86%; in the series with AR mRNA [2] (1500.0 nM), 96%. The substance further gave an IC50 with AR mRNA [2] of 85 nM. In addition, the “Percent inhibition of C4-2B MR cell proliferation” value was 0% with C4-2B MR cells (0.04 μM), 0% in the series with C4-2B MR cells (0.20 μM), 21% in the series with C4-2B MR cells (1.00 μM) and 22% in the series with C4-2B MR cells (5.00 μM). For the same substance, the “Percent inhibition of full-length AR mRNA in C4-2B MR cells” value in the series on total AR mRNA (0.04 μM) is reported as 9%; in the series with total AR mRNA (0.20 μM) it was 36%; in the series with total AR mRNA (1.00 μM), 66%; with total AR mRNA (5.00 μM), 88%. Moreover, the “Percent inhibition of KLK3 mRNA in C4-2B MR cells” value in the series with KLK3 mRNA (0.04 μM) was 10%; in the series with KLK3 mRNA (0.20 μM), 47%; in the series with KLK3 mRNA (1.00 μM), 42%; in the series with KLK3 mRNA (5.00 μM), 64%.

On to “347526 (TCTTATGTTTCCGAACCGTT; sugars from the 5' end e5 d10 e5, backbone and methylation of C not given here) [compound 347526]”, for which the “Percent inhibition of KLK2 mRNA in C4-2B MR cells” value with KLK2 mRNA (0.04 μM) is recorded as 28%; in the series with KLK2 mRNA (0.20 μM) it was 29%; in the series on KLK2 mRNA (1.00 μM), 23%; in the series with KLK2 mRNA (5.00 μM) it was 22%. For the same substance, the “Percent inhibition of C4-2B MR cell proliferation” value with C4-2B MR cells (0.04 μM) is on record as 11%; in the series on C4-2B MR cells (0.20 μM), 22%; in the series on C4-2B MR cells (1.00 μM), 7%; in the series with C4-2B MR cells (5.00 μM), 16%. The “Percent inhibition of full-length AR mRNA in C4-2B MR cells” value was found to be 28% with total AR mRNA (0.04 μM), 35% in the series on total AR mRNA (0.20 μM), 31% in the series on total AR mRNA (1.00 μM) and 17% in the series with total AR mRNA (5.00 μM). Further, the “Percent inhibition of KLK3 mRNA in C4-2B MR cells” value in the series on KLK3 mRNA (0.04 μM) is 5%; in the series with KLK3 mRNA (0.20 μM), 38%; in the series with KLK3 mRNA (1.00 μM), 42%; in the series with KLK3 mRNA (5.00 μM), 16%.

What is called % inhibition is the drop in the measured response relative to a control, in per cent. Lower therefore signals little suppression. By IC50 is commonly meant the concentration needed to halve the response being measured. Read a low IC50 as inhibition by little substance.
